Reference: patent US20060073220A1, “Cinnamon extract enriched for polyphenols and methods of preparing same” (priority 2004, published 2006)
≈ marks a conversion by molar mass, not a printed value.

Key:
[1] = test system: RSV (respiratory syncytial virus); assay: RSV (respiratory syncytial virus) assay; type: cell-based
Punta Toro A = assay: antiviral assay, Punta Toro A; type: cell-based, Punta Toro A virus
West Nile Virus = assay: antiviral assay, West Nile Virus; type: cell-based; settings: positive control, Vero cells
Influenza A = Influenza A assay (strain not stated for the control); type: cell-based, influenza A virus
Adenovirus Type 1 = assay: antiviral assay, Adenovirus Type 1; type: cell-based
Influenza B = assay: antiviral assay, Influenza B; type: cell-based; settings: positive control, MDCK cells
Rhinovirus Type 2 = assay: antiviral assay, Rhinovirus Type 2; type: cell-based
[2] = test system: PIV (parainfluenza virus); assay: PIV (parainfluenza virus) assay; type: cell-based
HSV-1 = assay: antiviral assay, HSV-1; type: cell-based, Herpes simplex virus 1; settings: positive control, HHF cells
HSV-2 = assay: antiviral assay, HSV-2; type: cell-based, Herpes simplex virus 2; settings: positive control, HHF cells

Compound | ED50 RSV assay [1] | ED50 Punta Toro A assay (Punta Toro A) | ED50 West Nile viral assay (West Nile Virus) | ED50 Influenza A assay (Influenza A) | ED50 Adenovirus type 1 assay (Adenovirus Type 1) | ED50 Influenza B assay (Influenza B) | ED50 Rhinovirus assay (Rhinovirus Type 2) | ED50 PVI (parainfluenza virus) assay [2] | ED50 HSV1 assay (HSV-1) | ED50 HSV2 assay (HSV-2)
NC(=O)c1ncn([C@@H]2O[C@H](CO)[C@@H](O)[C@H]2O)n1 [ribivarin] | 20 µg/mL (≈ 81.9 µM) | 20 µg/mL (≈ 81.9 µM) | 20 µg/mL (≈ 81.9 µM) | 2 to 3 µg/mL | 10 µg/mL (≈ 40.9 µM) | 2 to 3 µg/mL | < 1 µg/mL | 20 µg/mL (≈ 81.9 µM) | – | –
Nc1nc2c(ncn2COCCO)c(=O)[nH]1 [acyclovir] | – | – | – | – | – | – | – | – | 1 to 2 µg/mL | 1 to 2 µg/mL
